Patent US6706663B2, “Herbicidal 3-heterocyclic substituted benzisothiazole and benzisoxazole compounds” (Wyeth, priority 2000, dated 2004)

Experiments:
[1] = test system: CYPIR (Cyperus iria); assay: Flooded paddy, preemergence weed control; format: in vivo; settings: rated 3-4 weeks after treatment, 0-9 rating scale
Summary of the method: (§1)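 Seeds or propagating organs were sown in the top 0.5 cm of silt loam soil, flooded, and the water kept 1.5 to 3 cm above the soil surface throughout. Plants were grown in the greenhouse and rated visually on a 0-9 scale against a control.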

[2] = test system: ORYSAT (Rice, Tebonnet); assay: Postemergence herbicidal evaluation; format: in vivo, Oryza sativa, (L.) Tebonnet; settings: postemergence
Summary of the method: (§2)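 Visual 0–9 injury scores versus control plants, covering stand, vigour, malformation, size, chlorosis and general appearance, taken four to five weeks post-spray and averaged over replicate tests. Plants were sprayed at roughly two weeks old and held on greenhouse benches.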

[3] = test system: MOOVA (Monochoria vaginalis); assay: Flooded paddy, preemergence weed control; format: in vivo, Presl.; settings: rated 3-4 weeks after treatment, 0-9 rating scale
Summary of the method: as §1

[4] = test system: IPOHE (Ipomoea hederacea); assay: Preemergence herbicidal evaluation; format: in vivo, (L.) Jacq.; settings: preemergence, rated 4-5 weeks after treatment
[5] = test system: TRZAWR (Wheat, Winter, cv Riband); assay: Postemergence herbicidal evaluation; format: in vivo, Triticum aestivum; settings: postemergence
Summary of the method: as §2

[6] = test system: IPOHE (Ipomoea hederacea); assay: Postemergence herbicidal evaluation; format: in vivo, (L.) Jacq.; settings: postemergence
Summary of the method: as §2

[7] = test system: ECHCG (Echinochloa crus-galli); assay: Postemergence herbicidal evaluation; format: in vivo, (L.) Beau; settings: postemergence
Summary of the method: as §2

[8] = test system: GLXMA (Soybean); assay: Preemergence herbicidal evaluation; format: in vivo, Glycine max, (L.) Merr.; settings: preemergence, rated 4-5 weeks after treatment
[9] = test system: GLXMAW (Soybean, Williams); assay: Postemergence herbicidal evaluation; format: in vivo, Glycine max, (L.) Merr. cv Williams; settings: postemergence
Summary of the method: as §2

[10] = test system: ECHCG (Echinochloa crus-galli); assay: Preemergence herbicidal evaluation; format: in vivo, (L.) Beau; settings: preemergence, rated 4-5 weeks after treatment
Summary of the method: (§3)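 Steps: mix seeds with potting soil; plant on ~1 inch soil per cup; spray compound in aqueous acetone; hold on greenhouse benches with routine watering; rate 0–9 visually against control at 4–5 weeks.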

[11] = test system: ABUTH (Abutilon theophrasti); assay: Preemergence herbicidal evaluation; format: in vivo, Medic.; settings: preemergence, rated 4-5 weeks after treatment
[12] = test system: ORYSAT (Rice, Tebonnet); assay: Flooded paddy, post-transplant rice tolerance; format: in vivo, Oryza sativa, (L.) Tebonnet; settings: flooded paddy, post-transplant rice, rated 3-4 weeks after treatment, 0-9 rating scale
Summary of the method: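 Steps: transplant two ten-day-old seedlings into silt loam; flood to 1.5-3 cm above soil; apply herbicide post-transplant; maintain water on greenhouse benches; rate stand, vigor, malformation, size and chlorosis on a 0-9 visual scale versus control.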

[13] = test system: ABUTH (Abutilon theophrasti); assay: Postemergence herbicidal evaluation; format: in vivo, Medic.; settings: postemergence
Summary of the method: as §2

[14] = test system: ZEAMX (Corn, Field); assay: Preemergence herbicidal evaluation; format: in vivo, Zea mays, L.; settings: preemergence, rated 4-5 weeks after treatment
[15] = test system: SAGPY (Sagittaria pygmaea); assay: Flooded paddy, preemergence weed control; format: in vivo, L.; settings: rated 3-4 weeks after treatment, 0-9 rating scale
Summary of the method: as §1

[16] = test system: GALAP (Galium aparine); assay: Preemergence herbicidal evaluation; format: in vivo; settings: preemergence, rated 4-5 weeks after treatment
Summary of the method: as §3

[17] = test system: CASOB (Cassia obtusifolia); assay: Postemergence herbicidal evaluation; format: in vivo, L.; settings: postemergence
Summary of the method: as §2

[18] = test system: CHEAL (Chenopodium album); assay: Postemergence herbicidal evaluation; format: in vivo, L.; settings: postemergence
Summary of the method: as §2

[19] = test system: AMBEL (Ambrosia artemisifolia); assay: Postemergence herbicidal evaluation; format: in vivo, L.; settings: postemergence
Summary of the method: as §2

[20] = test system: GALAP (Galium aparine); assay: Postemergence herbicidal evaluation; format: in vivo; settings: postemergence
Summary of the method: as §2

[21] = test system: ZEAMX (Corn, Field); assay: Postemergence herbicidal evaluation; format: in vivo, Zea mays, L.; settings: postemergence
Summary of the method: as §2

[22] = test system: AMBEL (Ambrosia artemisifolia); assay: Preemergence herbicidal evaluation; format: in vivo, L.; settings: preemergence, rated 4-5 weeks after treatment
Summary of the method: as §3

[23] = test system: ECHORC (Echinochloa oryzoides); assay: Flooded paddy, preemergence weed control; format: in vivo, Echinochloa oryzoides (Ard.) Fritsch.; settings: rated 3-4 weeks after treatment, 0-9 rating scale
Summary of the method: as §1

Cn1c(C(F)(F)F)cc(=O)n(-c2ccc3snc(-c4nc5ccccc5[nH]c4=O)c3c2)c1=O [Compound 90, 3-[3-(3,4-dihydro-3-oxo-2-quinoxalinyl)-1,2-benzisothiazol-5-yl]-1-methyl-6-(trifluoromethyl)uracil]
CYPIR herbicidal rating ([1]; rate 0.0320 kg/ha): 0.0
CYPIR herbicidal rating ([1]; rate 0.1250 kg/ha): 0.0
ORYSAT herbicidal rating ([2]; rate 0.0320 kg/ha): 2.0
ORYSAT herbicidal rating ([2]; rate 0.0620 kg/ha): 2.5
ORYSAT herbicidal rating ([2]; rate 0.1250 kg/ha): 2.0
MOOVA herbicidal rating ([3]; rate 0.0320 kg/ha): 0.0
MOOVA herbicidal rating ([3]; rate 0.1250 kg/ha): 0.0
Preemergence herbicidal rating IPOHE ([4]; rate 0.0620 kg/ha): 0.0
Preemergence herbicidal rating IPOHE ([4]; rate 0.1250 kg/ha): 0.0
Preemergence herbicidal rating IPOHE ([4]; rate 0.2500 kg/ha): 1.5
TRZAWR herbicidal rating ([5]; rate 0.0320 kg/ha): 2.8
TRZAWR herbicidal rating ([5]; rate 0.0620 kg/ha): 2.8
TRZAWR herbicidal rating ([5]; rate 0.1250 kg/ha): 2.0
IPOHE herbicidal rating ([6]; rate 0.0320 kg/ha): 6.5
IPOHE herbicidal rating ([6]; rate 0.0620 kg/ha): 8.0
IPOHE herbicidal rating ([6]; rate 0.1250 kg/ha): 9.0
ECHCG herbicidal rating ([7]; rate 0.0320 kg/ha): 2.0
ECHCG herbicidal rating ([7]; rate 0.0620 kg/ha): 3.0
ECHCG herbicidal rating ([7]; rate 0.1250 kg/ha): 4.0
Preemergence herbicidal rating GLXMA ([8]; rate 0.0620 kg/ha): 0.0
Preemergence herbicidal rating GLXMA ([8]; rate 0.1250 kg/ha): 0.0
Preemergence herbicidal rating GLXMA ([8]; rate 0.2500 kg/ha): 0.0
GLXMAW herbicidal rating ([9]; rate 0.0320 kg/ha): 6.0
GLXMAW herbicidal rating ([9]; rate 0.0620 kg/ha): 6.3
GLXMAW herbicidal rating ([9]; rate 0.1250 kg/ha): 6.5
Preemergence herbicidal rating ECHCG ([10]; rate 0.0620 kg/ha): 0.0
Preemergence herbicidal rating ECHCG ([10]; rate 0.1250 kg/ha): 0.0
Preemergence herbicidal rating ECHCG ([10]; rate 0.2500 kg/ha): 1.0
Preemergence herbicidal rating ABUTH ([11]; rate 0.0620 kg/ha): 0.0
Preemergence herbicidal rating ABUTH ([11]; rate 0.1250 kg/ha): 3.5
Preemergence herbicidal rating ABUTH ([11]; rate 0.2500 kg/ha): 9.0
ORYSAT herbicidal rating (transplanted rice tolerance) ([12]; rate 0.0320 kg/ha): 0.0
ORYSAT herbicidal rating (transplanted rice tolerance) ([12]; rate 0.1250 kg/ha): 0.0
ABUTH herbicidal rating ([13]; rate 0.0320 kg/ha): 7.5
ABUTH herbicidal rating ([13]; rate 0.0620 kg/ha): 7.5
ABUTH herbicidal rating ([13]; rate 0.1250 kg/ha): 9.0
Preemergence herbicidal rating ZEAMX ([14]; rate 0.0620 kg/ha): 0.0
Preemergence herbicidal rating ZEAMX ([14]; rate 0.1250 kg/ha): 0.0
Preemergence herbicidal rating ZEAMX ([14]; rate 0.2500 kg/ha): 0.0
SAGPY herbicidal rating ([15]; rate 0.0320 kg/ha): 0.0
SAGPY herbicidal rating ([15]; rate 0.1250 kg/ha): 0.0
Preemergence herbicidal rating GALAP ([16]; rate 0.0620 kg/ha): 0.0
Preemergence herbicidal rating GALAP ([16]; rate 0.1250 kg/ha): 0.0
Preemergence herbicidal rating GALAP ([16]; rate 0.2500 kg/ha): 3.0
CASOB herbicidal rating ([17]; rate 0.0320 kg/ha): 5.0
CASOB herbicidal rating ([17]; rate 0.0620 kg/ha): 5.0
CASOB herbicidal rating ([17]; rate 0.1250 kg/ha): 5.0
CHEAL herbicidal rating ([18]; rate 0.0320 kg/ha): 9.0
CHEAL herbicidal rating ([18]; rate 0.0620 kg/ha): 9.0
CHEAL herbicidal rating ([18]; rate 0.1250 kg/ha): 9.0
AMBEL herbicidal rating ([19]; rate 0.0320 kg/ha): 6.5
AMBEL herbicidal rating ([19]; rate 0.0620 kg/ha): 6.5
AMBEL herbicidal rating ([19]; rate 0.1250 kg/ha): 9.0
GALAP herbicidal rating ([20]; rate 0.0320 kg/ha): 4.0
GALAP herbicidal rating ([20]; rate 0.0620 kg/ha): 4.0
GALAP herbicidal rating ([20]; rate 0.1250 kg/ha): 5.0
ZEAMX herbicidal rating ([21]; rate 0.0320 kg/ha): 3.3
ZEAMX herbicidal rating ([21]; rate 0.0620 kg/ha): 3.3
ZEAMX herbicidal rating ([21]; rate 0.1250 kg/ha): 2.5
Preemergence herbicidal rating AMBEL ([22]; rate 0.0620 kg/ha): 0.0
Preemergence herbicidal rating AMBEL ([22]; rate 0.1250 kg/ha): 1.5
Preemergence herbicidal rating AMBEL ([22]; rate 0.2500 kg/ha): 3.5
ECHORC herbicidal rating ([23]; rate 0.0320 kg/ha): 0.0
ECHORC herbicidal rating ([23]; rate 0.1250 kg/ha): 0.0
